Molecules are shown by their SMILES.

For assay [1], the system named is TGF-β-stimulated SMAD3 phosphorylation in BEAS-2B cells. Kind of assay: Cellular ALK5 potency assay, inhibition of TGF-β stimulated pSMAD3 formation in BEAS-2B cells. The class given is cell-based. The following applies: Homo sapiens, inhibition of TGF-β (10 ng/mL) stimulated pSMAD3 formation, 1 hour compound incubation, read-out: BEAS2B pIC50 (converted). The essentials:
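Phospho-SMAD3 was quantified by AlphaLISA in lysates of human lung epithelial BEAS-2B cells. Compound was added 1 h (37 °C, HEPES/BSA-supplemented HBSS) before a 30 min challenge with 10 ng/mL TGF-β. Values are pIC50 relative to stimulated cells without compound.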

For assay [2], the target named is T1, recombinant human ALK5 (TGF-βR1) protein (Homo sapiens, UniProt P36897).
T1 construct: purchased Life Technologies PR9075A
T1 sequence (P36897 34-503): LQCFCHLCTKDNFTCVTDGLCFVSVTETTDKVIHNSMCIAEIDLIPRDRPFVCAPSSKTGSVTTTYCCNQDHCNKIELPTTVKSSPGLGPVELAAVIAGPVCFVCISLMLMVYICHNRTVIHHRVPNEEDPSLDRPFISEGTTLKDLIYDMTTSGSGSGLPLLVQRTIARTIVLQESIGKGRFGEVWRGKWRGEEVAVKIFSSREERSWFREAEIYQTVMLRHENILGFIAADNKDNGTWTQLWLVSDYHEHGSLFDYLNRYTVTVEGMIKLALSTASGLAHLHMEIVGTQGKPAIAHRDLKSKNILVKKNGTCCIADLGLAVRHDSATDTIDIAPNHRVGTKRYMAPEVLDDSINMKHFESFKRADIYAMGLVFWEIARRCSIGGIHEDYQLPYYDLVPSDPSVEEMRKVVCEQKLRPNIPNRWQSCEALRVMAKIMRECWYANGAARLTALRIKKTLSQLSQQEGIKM
As to the kind of experiment: Biochemical ALK5 (TGF-βR1) assay to measure pKi (LANCE Ultra ULight kinase assay). The following applies: apparent pKi, converted from pIC50 using the Cheng-Prusoff equation. The essentials: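 TR-FRET kinase format: compound dose range 10 μM–25 pM equilibrated 60 min with human ALK5 and ULight-labelled topoisomerase 2α peptide in HEPES/MgCl2 buffer pH 7.5 with DTT. Reaction started with ATP (125 μM stock, 5× final), 60 min at 37° C, stopped with EDTA/Eu-anti-phospho antibody; pKi derived from pIC50 via Cheng-Prusoff.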
(In general: In TR-FRET formats the signal depends on donor and acceptor labels being close together.)

For `O=C(O)[C@H]1CN(c2cnc3ccc(-c4c[nH]nc4-c4cc(Cl)ccc4F)nc3c2)CCN1` [Compound 1-130, (2R)-4-[6-[3-(5-chloro-2-fluoro-phenyl)-1H-pyrazol-4-yl]-1,5-naphthyridin-3-yl]piperazine-2-carboxylic acid], the IC50 in assay [1] is 200 to 1260 nM. The Ki in assay [2] is 0.398 to 3.16 nM.
As to `CNCCn1cc(-c2cnc3ccc(-c4c[nH]nc4-c4cc(Cl)ccc4F)nc3c2)nn1` [Compound 1-131, 2-[4-[6-[3-(5-chloro-2-fluoro-phenyl)-1H-pyrazol-4-yl]-1,5-naphthyridin-3-yl]triazol-1-yl]-N-methyl-ethanamine], the IC50 in assay [1] was at most 20 nM. The Ki in assay [2] is 0.0398 to 0.316 nM.
In the case of `O=C(NCCN1CCCC1)[C@H]1CN(c2cnc3ccc(-c4c[nH]nc4-c4cc(Cl)ccc4F)nc3c2)CCN1` [Compound 1-132, (2R)-4-[6-[3-(5-chloro-2-fluoro-phenyl)-1H-pyrazol-4-yl]-1,5-naphthyridin-3-yl]-N-(2-pyrrolidin-1-ylethyl)piperazine-2-carboxamide], the IC50 in assay [1] was 200 to 1260 nM. In assay [2], the Ki is 0.0398 to 0.316 nM.
For the compound `O=C(O)C1CN(CCNc2cnc3ccc(-c4c[nH]nc4-c4cc(Cl)ccc4F)nc3c2)CCN1` (stereo not drawn) [Compound 1-133, 4-[2-[[6-[3-(5-chloro-2-fluoro-phenyl)-1H-pyrazol-4-yl]-1,5-naphthyridin-3-yl]amino]ethyl]piperazine-2-carboxylic acid], the IC50 in assay [1] is 200 to 1260 nM. Moreover, the Ki in assay [2] is 0.0398 to 0.316 nM.
As to `COC(=O)[C@H]1CN(c2cnc3ccc(-c4c[nH]nc4-c4cc(Cl)ccc4F)nc3c2)CCN1CCN` [Compound 1-134, methyl (2R)-1-(2-aminoethyl)-4-[6-[3-(5-chloro-2-fluoro-phenyl)-1H-pyrazol-4-yl]-1,5-naphthyridin-3-yl]piperazine-2-carboxylate], the IC50 in assay [1] is 25.1 to 158 nM. Moreover, the Ki in assay [2] is 0.398 to 3.16 nM.
In the same order, the values of `NC1CCN(c2cnc3ccc(-c4c[nH]nc4-c4cc(Cl)ccc4F)nc3c2)CC1` [Compound 1-135, 1-[6-[3-(5-chloro-2-fluoro-phenyl)-1H-pyrazol-4-yl]-1,5-naphthyridin-3-yl]piperidin-4-amine] are 25.1 to 158 nM and 0.0398 to 0.316 nM.
Take `COC(=O)CC1CN(c2cnc3ccc(-c4c[nH]nc4-c4cc(Cl)ccc4F)nc3c2)CCN1` (stereo not drawn) [Compound 1-136, methyl 2-[4-[6-[3-(5-chloro-2-fluoro-phenyl)-1H-pyrazol-4-yl]-1,5-naphthyridin-3-yl]piperazin-2-yl]acetate]: the IC50 in assay [1] is at most 20 nM. In addition, the Ki in assay [2] is 0.0398 to 0.316 nM.
Turning to `CN1CCN(c2ccc(Nc3cnc4ccc(-c5nc[nH]c5-c5cc(Cl)ccc5F)nc4c3)nc2)CC1` [Compound 2-1, 6-(5-(5-chloro-2-fluorophenyl)-1H-imidazol-4-yl)-N-(5-(4-methylpiperazin-1-yl)pyridin-2-yl)-1,5-naphthyridin-3-amine], in assay [1], the IC50 is 25.1 to 158 nM. In assay [2], the Ki is 0.0398 to 0.316 nM.
With `CC(C)N1CCN(CCNc2cnc3ccc(-c4nc[nH]c4-c4cc(Cl)ccc4F)nc3c2)CC1` [Compound 2-2, 6-[5-(5-chloro-2-fluoro-phenyl)-1H-imidazol-4-yl]-N-[2-(4-isopropylpiperazin-1-yl)ethyl]-1,5-naphthyridin-3-amine], the IC50 in assay [1] was 25.1 to 158 nM. Moreover, in assay [2], the Ki is 0.0398 to 0.316 nM.
In the case of `CC1(C)CCCN1CCNc1cnc2ccc(-c3nc[nH]c3-c3cc(Cl)ccc3F)nc2c1` [Compound 2-3, 6-[5-(5-chloro-2-fluoro-phenyl)-1H-imidazol-4-yl]-N-[2-(2,2-dimethylpyrrolidin-1-yl)ethyl]-1,5-naphthyridin-3-amine], in assay [1], the IC50 is 25.1 to 158 nM. Further, the Ki in assay [2] was 0.0398 to 0.316 nM.
For `Fc1ccc(Cl)cc1-c1[nH]cnc1-c1ccc2ncc(Nc3ccc(N4CCNCC4)cn3)cc2n1` [Compound 2-4, 6-[5-(5-chloro-2-fluoro-phenyl)-1H-imidazol-4-yl]-N-(5-piperazin-1-yl-2-pyridyl)-1,5-naphthyridin-3-amine], in assay [1], the IC50 is 25.1 to 158 nM. Further, the Ki in assay [2] is 0.0398 to 0.316 nM.
Take `CC(C)N1CCN(c2ccc(Nc3cnc4ccc(-c5nc[nH]c5-c5cc(Cl)ccc5F)nc4c3)nc2)CC1` [Compound 2-5, 6-(5-(5-chloro-2-fluorophenyl)-1H-imidazol-4-yl)-N-(5-(4-isopropylpiperazin-1-yl)pyridin-2-yl)-1,5-naphthyridin-3-amine]: in assay [1], the IC50 was 25.1 to 158 nM. The Ki in assay [2] was 0.0398 to 0.316 nM.
For `CN(C)C1CCN(c2cnc3ccc(-c4nc[nH]c4-c4cc(Cl)ccc4F)nc3c2)CC1` [Compound 2-6, 1-(6-(5-(5-chloro-2-fluorophenyl)-1H-imidazol-4-yl)-1,5-naphthyridin-3-yl)-N,N-dimethylpiperidin-4-amine], the IC50 in assay [1] was 25.1 to 158 nM. In assay [2], the Ki is 0.0398 to 0.316 nM.
As to `Fc1ccc(Cl)cc1-c1[nH]cnc1-c1ccc2ncc(N3CCCNCC3)cc2n1` [Compound 2-7, 2-[5-(5-chloro-2-fluoro-phenyl)-1H-imidazol-4-yl]-7-(1,4-diazepan-1-yl)-1,5-naphthyridine], the IC50 in assay [1] was 25.1 to 158 nM. The Ki in assay [2] is 0.398 to 3.16 nM.
Take `Fc1ccc(Cl)cc1-c1[nH]cnc1-c1ccc2ncc(N3CCNCC3)cc2n1` [Compound 2-8, 2-[5-(5-chloro-2-fluoro-phenyl)-1H-imidazol-4-yl]-7-piperazin-1-yl-1,5-naphthyridine]: in assay [1], the IC50 was at most 20 nM. Further, the Ki in assay [2] was 0.0398 to 0.316 nM.
On to `CNC1CCN(c2cnc3ccc(-c4nc[nH]c4-c4cc(Cl)ccc4F)nc3c2)CC1` [Compound 2-9, 1-[6-[5-(5-chloro-2-fluoro-phenyl)-1H-imidazol-4-yl]-1,5-naphthyridin-3-yl]-N-methyl-piperidin-4-amine], for which the IC50 in assay [1] was 25.1 to 158 nM. Besides, in assay [2], the Ki is at most 0.0316 nM.
As for `CN1CCN(C2CCN(c3cnc4ccc(-c5nc[nH]c5-c5cc(Cl)ccc5F)nc4c3)CC2)CC1` [Compound 2-10, 2-[5-(5-chloro-2-fluoro-phenyl)-1H-imidazol-4-yl]-7-[4-(4-methylpiperazin-1-yl)-1-piperidyl]-1,5-naphthyridine], the IC50 in assay [1] is 25.1 to 158 nM. Besides, in assay [2], the Ki was 0.0398 to 0.316 nM.
For the compound `O=C(O)[C@@H]1CN(c2cnc3ccc(-c4nc[nH]c4-c4cc(Cl)ccc4F)nc3c2)CCN1` [Compound 2-13, (S)-4-(6-(5-(5-chloro-2-fluorophenyl)-1H-imidazol-4-yl)-1,5-naphthyridin-3-yl)piperazine-2-carboxylic acid], in assay [1], the IC50 was 200 to 1260 nM. For the same compound, the Ki in assay [2] is 0.398 to 3.16 nM.
In the case of `Fc1ccc(Cl)cc1-c1[nH]cnc1-c1ccc2ncc(N3CCn4nc(C5=CCNC5)nc4C3)cc2n1` [Compound 2-14, 2-(5-(5-chloro-2-fluorophenyl)-1H-imidazol-4-yl)-7-(2-(2,5-dihydro-1H-pyrrol-3-yl)-5,6-dihydro-[1,2,4]triazolo[1,5-a]pyrazin-7(8H)-yl)-1,5-naphthyridine], in assay [1], the IC50 is 200 to 1260 nM. Besides, the Ki in assay [2] was 0.0398 to 0.316 nM.
For `CN1CC=C(c2nc3n(n2)CCN(c2cnc4ccc(-c5nc[nH]c5-c5cc(Cl)ccc5F)nc4c2)C3)C1` [Compound 2-15, 2-(5-(5-chloro-2-fluorophenyl)-1H-imidazol-4-yl)-7-(2-(1-methyl-2,5-dihydro-1H-pyrrol-3-yl)-5,6-dihydro-[1,2,4]triazolo[1,5-a]pyrazin-7(8H)-yl)-1,5-naphthyridine], the IC50 in assay [1] was 25.1 to 158 nM. In addition, the Ki in assay [2] is at most 0.0316 nM.
Regarding `CNCCn1ccc(-c2cnc3ccc(-c4nc[nH]c4-c4cc(Cl)ccc4F)nc3c2)n1` [Compound 2-16, 2-(3-(6-(5-(5-chloro-2-fluorophenyl)-1H-imidazol-4-yl)-1,5-naphthyridin-3-yl)-1H-pyrazol-1-yl)-N-methylethan-1-amine], the IC50 in assay [1] was 25.1 to 158 nM. For the same compound, in assay [2], the Ki is 0.0398 to 0.316 nM.
`Fc1ccc(Cl)cc1-c1[nH]cnc1-c1ccc2ncc(-c3cn[nH]c3)cc2n1` [Compound 2-17, 2-[5-(5-chloro-2-fluoro-phenyl)-1H-imidazol-4-yl]-7-(1H-pyrazol-4-yl)-1,5-naphthyridine]: the IC50 in assay [1] is 25.1 to 158 nM. For the same compound, the Ki in assay [2] is 0.0398 to 0.316 nM.
For the compound `Fc1ccc(Cl)cc1-c1[nH]cnc1-c1ccc2ncc(-c3cnn(C4CCCNC4)c3)cc2n1` (stereo not drawn) [Compound 2-18, 2-[5-(5-chloro-2-fluoro-phenyl)-1H-imidazol-4-yl]-7-[1-(3-piperidyl)pyrazol-4-yl]-1,5-naphthyridine], the IC50 in assay [1] is 25.1 to 158 nM. In assay [2], the Ki was 0.0398 to 0.316 nM.
In the same order, the values of `CNCCn1cc(-c2cnc3ccc(-c4nc[nH]c4-c4cc(Cl)ccc4F)nc3c2)cn1` [Compound 2-19, 2-[4-[6-[5-(5-chloro-2-fluoro-phenyl)-1H-imidazol-4-yl]-1,5-naphthyridin-3-yl]pyrazol-1-yl]-N-methyl-ethanamine] are 25.1 to 158 nM and 0.0398 to 0.316 nM.

Values taken from US11730720B2, “ALK5 inhibitors” (THERAVANCE BIOPHARMA R&D IP, LLC, priority 2018, dated 2023).
